≈ marks a conversion by molar mass, not a printed value.
Assays:
[1] = system: BGC-823; assay: Cytotoxicity against human BGC823 cells after 72 hrs by MTT assay; type: functional, cell-based; conditions: BGC-823, 72 h
[2] = system: HCT-8; assay: Cytotoxicity against human HCT8 cells after 72 hrs by MTT assay; type: functional, cell-based; conditions: HCT-8, 72 h
[3] = system: A549; assay: Cytotoxicity against human A549 cells after 72 hrs by MTT assay; type: functional, cell-based; conditions: A549, 72 h
[4] = Selectivity ratio of IC50 for human embryo lung fibroblast to IC50 for human KB cells; type: ADME, cell-based; conditions: human embryo lung fibroblasts and KB cells
[5] = Cytotoxicity against human embryo lung fibroblast after 72 hrs by MTT assay; type: cell-based
[6] = system: KB; assay: Cytotoxicity against human KB cells after 72 hrs by MTT assay; type: functional, cell-based

Structure (SMILES) | IC50 [1] [µg/mL] | IC50 [2] [µg/mL] | IC50 [3] [µg/mL] | selectivity ratio [4] | IC50 [5] [µg/mL] | IC50 [6] [µg/mL]
CCCCOC(=O)[C@H]1O[C@@H](O[C@H]2CC[C@@]3(C)C(CC[C@]4(C)[C@@H]3CC=C3[C@@H]5CC(C)(C)[C@@H](OC(=O)/C=C(\C)CCC=C(C)C)[C@H](OC(=O)C(C)CC)[C@]5(CO)[C@H](O)[C@H](O)[C@]34C)C2(C)C)[C@H](O[C@@H]2O[C@H](CO)[C@@H](O)[C@H](O)[C@H]2O)[C@@H](O)[C@@H]1O[C@@H]1O[C@@H](CO)[C@H](O)[C@H]1O (some centres not stated) | 7.29 (≈ 5.75 µM) | 2.86 (≈ 2.26 µM) |  |  |  | 
COC(=O)[C@H]1O[C@@H](O[C@H]2CC[C@@]3(C)C(CC[C@]4(C)[C@@H]3CC=C3[C@@H]5CC(C)(C)[C@@H](O)[C@H](O)[C@]5(CO)[C@H](O)[C@H](O)[C@]34C)C2(C)C)[C@H](O[C@@H]2O[C@H](CO)[C@@H](O)[C@H](O)[C@H]2O)[C@@H](O)[C@@H]1O[C@@H]1O[C@@H](CO)[C@H](O)[C@H]1O (some centres not stated) |  | 6.8 (≈ 6.86 µM) | 0.66 (≈ 0.666 µM) | > 33 | > 10 | 0.3 (≈ 0.303 µM)
CCCCOC(=O)[C@H]1O[C@@H](O[C@H]2CC[C@@]3(C)C(CC[C@]4(C)[C@@H]3CC=C3[C@@H]5CC(C)(C)C[C@H](OC(=O)/C=C(\C)CCC=C(C)C)[C@]5(CO)[C@H](O)[C@H](O)[C@]34C)C2(C)C)[C@H](O[C@@H]2O[C@H](CO)[C@@H](O)[C@H](O)[C@H]2O)[C@@H](O)[C@@H]1O[C@@H]1O[C@@H](CO)[C@H](O)[C@H]1O (some centres not stated) |  | 4.04 (≈ 3.46 µM) |  |  |  | 
CCC(C)C(=O)O[C@H]1[C@H](OC(=O)/C=C(\C)CCC=C(C)C)C(C)(C)C[C@H]2C3=CC[C@@H]4[C@@]5(C)CC[C@H](O[C@@H]6O[C@H](C(=O)OC)[C@@H](O[C@@H]7O[C@@H](CO)[C@H](O)[C@H]7O)[C@H](O)[C@H]6O[C@@H]6O[C@H](CO)[C@@H](O)[C@H](O)[C@H]6O)C(C)(C)C5CC[C@@]4(C)[C@]3(C)[C@@H](O)[C@@H](O)[C@]21CO (some centres not stated) [SYMPLOCOSOSIDE A] |  | 4.31 (≈ 3.52 µM) | 0.67 (≈ 0.547 µM) |  | 4.62 (≈ 3.77 µM) | 1.72 (≈ 1.4 µM)
